Experimental data reported in ChEMBL document CHEMBL1154560, “New sesquiterpene/quinones from two sponges of the genus Hyrtios” (J Nat Prod, 2000).
Values after ≈ are worked out from the molar mass of the structure shown.

Test: Toxicity in Artemia larvae
Type: organism-based
Details: in vivo, read-out: LD50 (the source's name)

Row | Compound | LC50 [µg/mL]
1 | COC1=CC(=O)C(O)=C(C[C@]2(C)[C@@H](C)CC[C@]3(C)C(C)=CCC[C@@H]23)C1=O [ISOSPONGIAQUINONE] | 2 (≈ 5.58 µM)
2 | C=C1CCC[C@H]2[C@](C)(CC3=C(O)C(=O)C=C(OC)C3=O)[C@@H](C)CC[C@@]12C | 4 (≈ 11.2 µM)
